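Five compound concentrations were applied to cells in 96-well plates for 48 hours; endpoints were derived by simple linear interpolation of the resulting dose-response curve. Here, GI50 denotes the concentration required for 50% inhibition of growth.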 Calls of active or inactive are those of the source. No stated cut-off is given here; in the data, active = GI50 up to about 1.1 µM and inactive = higher.
Legend:
Assay in all cases: growth of human tumour cells (NCI), 48 h
HCC 2998 = test system: HCC 2998
OVCAR-8 = test system: OVCAR-8
RXF 393 = test system: RXF 393
NCI-H226 = test system: NCI-H226
IGROV-1 = test system: IGROV-1
PC-3 = test system: PC-3
NCI-H460 = test system: NCI-H460
LOX IMVI = test system: LOX IMVI
ACHN = test system: ACHN
UO-31 = test system: UO-31
Hs-578T = test system: Hs-578T
NCI/ADR-RES = test system: NCI/ADR-RES
OVCAR-3 = test system: OVCAR-3
SR = test system: SR
SF-295 = test system: SF-295
CCRF-CEM = test system: CCRF-CEM
SF-268 = test system: SF-268
NCI-H522 = test system: NCI-H522
HCT-15 = test system: HCT-15
DU-145 = test system: DU-145
EKVX = test system: EKVX
OVCAR-4 = test system: OVCAR-4
A549 = test system: A549
SNB-19 = test system: SNB-19
COLO 205 = test system: COLO 205
HCT-116 = test system: HCT-116
RPMI-8226 = test system: RPMI-8226
OVCAR-5 = test system: OVCAR-5
CAKI-1 = test system: CAKI-1
MDA-MB-435 = test system: MDA-MB-435
SK-MEL-2 = test system: SK-MEL-2
SW-620 = test system: SW-620
NCI-H23 = test system: NCI-H23
KM12 = test system: KM12
HL-60 = test system: HL-60
SNB-75 = test system: SNB-75
M14 = test system: M14
SK-MEL-5 = test system: SK-MEL-5
U-251 = test system: U-251
SK-OV-3 = test system: SK-OV-3
A498 = test system: A498
HOP-62 = test system: HOP-62
MDA-N = test system: MDA-N
Malme-3M = test system: Malme-3M
MDA-MB-231 = test system: MDA-MB-231
MOLT-4 = test system: MOLT-4
HT-29 = test system: HT-29
SN12C = test system: SN12C
UACC-257 = test system: UACC-257
TK-10 = test system: TK-10
MCF7 = test system: MCF7
BT-549 = test system: BT-549
T47D = test system: T47D
SK-MEL-28 = test system: SK-MEL-28
UACC-62 = test system: UACC-62
786-0 = test system: 786-0
SF-539 = test system: SF-539
HOP-92 = test system: HOP-92
K562 = test system: K562
DMS-273 = test system: DMS-273
KM-20L2 = test system: KM-20L2
M19-MEL = test system: M19-MEL

Measured: GI50

COc1c(C)c(OC)c2c(c1O)[C@@H]1[C@@H]3Cc4c(OC)c(C)c(OC)c(O)c4[C@H](CNC(=O)c4cnc5ccccc5n4)N3[C@@H](C#N)[C@H](C2)N1C
8.26 nM: HCT-15
active: HCC 2998 3.27 nM | OVCAR-8 2.83 nM | RXF 393 3.41 nM | NCI-H226 2.46 nM | IGROV-1 1.4 nM | PC-3 4.33 nM | NCI-H460 4 nM | LOX IMVI 1.08 nM | ACHN 3.48 nM | UO-31 6.4 nM | Hs-578T 1.34 nM | NCI/ADR-RES > 64.3 nM | OVCAR-3 2.14 nM | SR 0.182 nM | SF-295 2.96 nM | CCRF-CEM 0.798 nM | SF-268 3.54 nM | NCI-H522 0.399 nM | DU-145 2.6 nM | EKVX 1.49 nM | OVCAR-4 2 nM | A549 29.2 nM | SNB-19 3.85 nM | COLO 205 1.19 nM | HCT-116 2.22 nM | RPMI-8226 0.634 nM | OVCAR-5 3.37 nM | CAKI-1 5.36 nM | MDA-MB-435 2.55 nM | SK-MEL-2 1.83 nM | SW-620 2 nM | NCI-H23 2.77 nM | KM12 1.49 nM | HL-60 1.53 nM | SNB-75 2.66 nM | M14 2.21 nM | SK-MEL-5 2.54 nM | U-251 1.35 nM | SK-OV-3 12.5 nM | A498 2.32 nM | HOP-62 4.29 nM | MDA-N 1.38 nM | Malme-3M 1.3 nM | MDA-MB-231 3.26 nM | MOLT-4 0.689 nM | HT-29 2.06 nM | SN12C 3.29 nM | UACC-257 2.96 nM | TK-10 7.71 nM | MCF7 1.35 nM | BT-549 1.32 nM | T47D 0.522 nM | SK-MEL-28 2.9 nM | UACC-62 1.23 nM | 786-0 4.12 nM | SF-539 0.873 nM | HOP-92 1.36 nM | K562 0.977 nM

COc1cc([C@@H]2c3cc4c(cc3[C@@H](NCCCN(C)C)[C@H]3COC(=O)[C@H]23)OCO4)cc(OC)c1O
847 nM: HCT-15
inactive: OVCAR-5 1340 nM | HT-29 1620 nM
active: HCC 2998 510 nM | IGROV-1 337 nM | NCI-H460 25.2 nM | LOX IMVI 359 nM | ACHN 110 nM | UO-31 440 nM | OVCAR-3 729 nM | SF-295 170 nM | CCRF-CEM 78.5 nM | NCI-H522 525 nM | DMS-273 141 nM | EKVX 526 nM | SNB-19 376 nM | RPMI-8226 480 nM | SW-620 381 nM | KM12 632 nM | HL-60 44.7 nM | SK-MEL-5 264 nM | U-251 223 nM | SK-OV-3 248 nM | KM-20L2 834 nM | Malme-3M 242 nM | MOLT-4 43.6 nM | SF-539 399 nM | M19-MEL 569 nM

Reference: ChEMBL document CHEMBL1201862, “PubChem BioAssay data set” (2004)
